Assay results from ChEMBL document CHEMBL1201862, “PubChem BioAssay data set” (2004).
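These data come from cells grown in 96-well plates and exposed to compound for 48 hours at five concentrations. The concentration for 50% growth inhibition is given as GI50.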 Calls of active or inactive are those of the source. Cut-off read from the data, not from the text of the source: active = GI50 up to about 1.1 µM and inactive = higher.

Legend:
Experiment in all cases: DTP human tumour cell line panel, 48 h
MCF7 = tested on: MCF7
IGROV-1 = tested on: IGROV-1
A549 = tested on: A549
SNB-19 = tested on: SNB-19
LOX IMVI = tested on: LOX IMVI
SW-620 = tested on: SW-620
OVCAR-3 = tested on: OVCAR-3
SN12C = tested on: SN12C
U-251 = tested on: U-251
DU-145 = tested on: DU-145
MDA-MB-435 = tested on: MDA-MB-435
HT-29 = tested on: HT-29
ACHN = tested on: ACHN
M19-MEL = tested on: M19-MEL
UACC-62 = tested on: UACC-62
OVCAR-5 = tested on: OVCAR-5
CAKI-1 = tested on: CAKI-1
RPMI-8226 = tested on: RPMI-8226
Malme-3M = tested on: Malme-3M
SNB-78 = tested on: SNB-78
KM12 = tested on: KM12
TK-10 = tested on: TK-10
NCI/ADR-RES = tested on: NCI/ADR-RES
NCI-H23 = tested on: NCI-H23
COLO 205 = tested on: COLO 205
MOLT-4 = tested on: MOLT-4
SK-MEL-2 = tested on: SK-MEL-2
HOP-92 = tested on: HOP-92
Hs-578T = tested on: Hs-578T
CCRF-CEM = tested on: CCRF-CEM
RXF 393 = tested on: RXF 393
MDA-N = tested on: MDA-N
SK-MEL-5 = tested on: SK-MEL-5
NCI-H460 = tested on: NCI-H460
T47D = tested on: T47D
OVCAR-8 = tested on: OVCAR-8
SF-268 = tested on: SF-268
HOP-62 = tested on: HOP-62
SF-539 = tested on: SF-539
DLD-1 = tested on: DLD-1
K562 = tested on: K562
SF-295 = tested on: SF-295
MDA-MB-231 = tested on: MDA-MB-231
UO-31 = tested on: UO-31
XF498 = tested on: XF498
NCI-H522 = tested on: NCI-H522
DMS-273 = tested on: DMS-273
A498 = tested on: A498
786-0 = tested on: 786-0
SK-MEL-28 = tested on: SK-MEL-28
NCI-H226 = tested on: NCI-H226
SK-OV-3 = tested on: SK-OV-3
BT-549 = tested on: BT-549
KM-20L2 = tested on: KM-20L2
UACC-257 = tested on: UACC-257
EKVX = tested on: EKVX
SNB-75 = tested on: SNB-75
LXFL 529 = tested on: LXFL 529
HL-60 = tested on: HL-60
HCT-15 = tested on: HCT-15
HCT-116 = tested on: HCT-116
HCC 2998 = tested on: HCC 2998
M14 = tested on: M14
PC-3 = tested on: PC-3
SR = tested on: SR
OVCAR-4 = tested on: OVCAR-4
RXF 631 = tested on: RXF 631

Measured: GI50

CN(C)CCNc1ccc2nnn3c4ccc(Cl)cc4c(=O)c1c23
active: SW-620 1.03 µM | NCI/ADR-RES 1.04 µM | MOLT-4 0.624 µM
inactive: MCF7 5.01 µM | IGROV-1 3.65 µM | A549 2.72 µM | SNB-19 4.17 µM | LOX IMVI 1.6 µM | OVCAR-3 5.6 µM | SN12C 2.36 µM | U-251 1.33 µM | DU-145 5.22 µM | MDA-MB-435 4.65 µM | HT-29 1.88 µM | ACHN 1.55 µM | M19-MEL 3.51 µM | UACC-62 4.89 µM | OVCAR-5 4.14 µM | CAKI-1 2.25 µM | RPMI-8226 2.92 µM | Malme-3M 4.89 µM | SNB-78 11.9 µM | KM12 4.54 µM | TK-10 5 µM | NCI-H23 5.09 µM | COLO 205 1.18 µM | SK-MEL-2 6.19 µM | HOP-92 3.69 µM | Hs-578T 3.3 µM | CCRF-CEM 4.62 µM | RXF 393 3.15 µM | MDA-N 3.52 µM | SK-MEL-5 2.94 µM | NCI-H460 2.48 µM | T47D 14.4 µM | OVCAR-8 1.7 µM | SF-268 3.4 µM | HOP-62 4.18 µM | SF-539 4.78 µM | DLD-1 3.21 µM | K562 2.14 µM | SF-295 2.85 µM | MDA-MB-231 11.1 µM | UO-31 1.56 µM | XF498 8.73 µM | NCI-H522 2.49 µM | DMS-273 2.82 µM | A498 2.8 µM | 786-0 2.42 µM | SK-MEL-28 5.74 µM | NCI-H226 2.06 µM | SK-OV-3 9.89 µM | BT-549 16 µM | KM-20L2 2.86 µM | UACC-257 5.19 µM | EKVX 4.45 µM | SNB-75 3.01 µM | LXFL 529 3.23 µM | HL-60 4.73 µM | HCT-116 1.48 µM | HCC 2998 8.67 µM | M14 4.94 µM | PC-3 2.76 µM | SR 1.33 µM | OVCAR-4 2.94 µM | RXF 631 2.37 µM
2.16 µM: HCT-15
